Experimental data as given in PubChem BioAssay (NCI).
Several values for one entry are separate records, joined by “and”; a condition that tells them apart may be missing. Equal entries are not always repeated.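 All cell lines were grown in 96-well plates and treated with compound for 48 hours. GI50 marks 50% less growth. TGI denotes the concentration required for complete inhibition of growth.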

Legend:
Experiment in all cases: inhibition of tumour cell growth, NCI panel, 48 h
CAKI-1 renal = tested on: CAKI-1 renal
A549 NSCLC = tested on: A549 NSCLC
NCI-H226 lung = tested on: NCI-H226 lung
EKVX NSCLC = tested on: EKVX NSCLC
HCC-2998 colon = tested on: HCC-2998 colon
NCI-H522 lung = tested on: NCI-H522 lung
SNB-75 CNS = tested on: SNB-75 CNS
HCT-15 colon = tested on: HCT-15 colon
SNB-19 CNS = tested on: SNB-19 CNS
RPMI-8226 leukemia = tested on: RPMI-8226 leukemia

| SMILES | TGI (CAKI-1 renal) [µM] | GI50 (A549 NSCLC) [µM] | TGI (A549 NSCLC) [µM] | GI50 (NCI-H226 lung) [µM] | TGI (NCI-H226 lung) [µM] | GI50 (EKVX NSCLC) [µM] | TGI (EKVX NSCLC) [µM] | GI50 (HCC-2998 colon) [µM] | TGI (HCC-2998 colon) [µM] | GI50 (NCI-H522 lung) [µM] | TGI (NCI-H522 lung) [µM] | TGI (SNB-75 CNS) [µM] | GI50 (HCT-15 colon) [µM] | TGI (HCT-15 colon) [µM] | GI50 (SNB-19 CNS) [µM] | TGI (SNB-19 CNS) [µM] | TGI (RPMI-8226 leukemia) | GI50 (CAKI-1 renal) [µM] |
| --- | --- | --- | --- | --- | --- | --- | --- | --- | --- | --- | --- | --- | --- | --- | --- | --- | --- | --- |
| CC(C)=CC(=O)O[C@H]1C(=O)O[C@@H]2C[C@H]3[C@H](C)C(=O)C(O[C@@H]4O[C@H](CO)[C@@H](O)[C@H](O)[C@H]4O)=C[C@]3(C)[C@H]3[C@@H](O)[C@H](O)[C@]4(C(=O)O)OC[C@]32[C@@H]14 | > 100 | 55 | > 100 | 28.4 | 85 | > 100 | > 100 | 24.7 | 57.5 | 29 | 52.6 | > 100 | > 100 | > 100 | 31.3 | > 100 | – | – |
| CC1(C)N=C(C(N)=O)c2ncn(CCO)c2N1 | > 100 | – | > 100 | – | > 100 | – | > 100 | – | > 100 | – | > 100 | – | – | > 100 | – | > 100 | > 100 µM | – |
| CC(C)SC(C)(NC(=O)C1C(C)(C)CCC1(C)C)C(=O)O (stereo unspecified) | – | – | > 100 | – | > 100 | – | > 100 | – | > 100 | – | – | > 100 | – | > 100 | – | > 100 | > 100 µM | – |
| Cc1c(C(=O)N2CCN(c3ccc([N+](=O)[O-])cc3)CC2)[n+](=O)c2cc(Cl)c(Cl)cc2n1[O-] | 64.3 | – | 48.5 | – | – | – | 41.1 | – | 33.2 | – | 32.7 | – | – | 36.2 | – | 42.1 | 63.4 µM | – |
| COc1cc2c(c(OC)c1OC)-c1ccc(SC)c(=O)cc1[C@@H](OC(C)=O)CC2 | > 100 | – | > 100 | – | – | – | > 100 | – | – | – | – | > 82.1 | – | > 100 | – | > 100 | > 59.9 µM | – |
| CN1C(=S)C(c2ccccc2)Sc2ccccc21 (stereo unspecified) | > 100 | – | > 100 | – | > 100 | – | > 100 | – | – | – | > 100 | > 100 | – | > 100 | – | > 100 | > 100 µM | – |
| O=C(Nc1cccc(C(F)(F)F)c1)O/N=C(/Cl)CCl | > 100 | – | > 100 | – | – | – | > 100 | – | > 100 | – | – | > 100 | – | > 100 | – | > 100 | 75.1 µM | – |
| CCOC(=O)Nc1c(C#N)[n+]([O-])c2cc(Cl)c(Cl)cc2[n+]1[O-] | 40.4 | – | 69.8 | – | 42.9 | – | – | – | – | – | – | 41.8 | – | 25.8 | – | 65.9 | 16.7 µM | – |
| COc1cccc(-c2ccc3c4c2O[C@H]2c5[nH]c6ccccc6c5C[C@@]5(O)[C@@H](C3)N(CC3CC3)CC[C@]425)c1 | 4.9 | – | 3.36 | – | 30.2 | – | 9.5 | – | 2.87 | – | – | – | – | 3.7 | – | 4.23 | 5.25 µM | – |
| NC(=Nc1ccc(O)cc1)S(=O)(=O)O | > 100 | – | > 100 | – | > 100 | – | > 100 | – | > 100 | – | > 100 | > 100 | – | > 100 | – | > 100 | – | – |
| C=CCOCn1cnc2c(N)ncnc21 | > 100 | – | > 100 | – | > 100 | – | > 100 | – | > 100 | – | – | > 100 | – | > 100 | – | > 100 | > 100 µM | – |
| O=[N+]([O-])/C(C(Cl)=C(Cl)Cl)=C1\NCCO1 | > 100 | – | > 100 | – | > 100 | – | > 100 | – | > 100 | – | > 100 | – | – | > 100 | – | > 100 | > 100 µM | – |
| O=C1NC(N/N=C\C(O)C(O)C(O)CO)=N/C1=C/c1ccc(Cl)cc1 (stereo unspecified) | > 100 | – | > 100 | – | > 100 | – | > 100 | – | – | – | > 100 | > 100 | – | 52.8 | – | > 100 | > 100 µM and 94.3 µM | – |
| COc1ccccc1-c1cc(=O)c2ccccc2[nH]1 | – | – | > 100 | – | > 100 | – | > 100 | – | > 100 | – | > 100 | > 100 | – | > 100 | – | > 100 | > 100 µM | – |
| O=C(Nc1nc2c(=O)[nH]cnc2s1)c1ccccc1 | > 100 | – | > 100 | – | > 100 | – | > 100 | – | > 100 | – | > 100 | > 100 | – | > 100 | – | > 100 | – | – |
| O=C(N=C1SCCN1C(=O)C(C(F)(F)F)C(F)(F)F)C(C(F)(F)F)C(F)(F)F | > 100 | – | > 100 | – | > 100 | – | > 100 | – | > 100 | – | > 100 | – | – | > 100 | – | > 100 | > 100 µM | – |
| CC(C)CCC[C@@H](C)[C@H]1CCC2C3CC=C4C[C@@H](Oc5c6ccccc6nc6ccccc56)CCC4C3CCC21 (stereo partly specified) | > 50 | – | > 50 | – | > 50 | – | > 50 | – | – | – | > 50 | – | – | > 50 | – | > 50 | – | – |
| COc1ccc(N2C(=Nc3ccccc3)SC(=N/S(=O)(=O)c3ccccc3)/C2=N\S(=O)(=O)c2ccccc2)cc1 | – | – | 46.5 | – | 56.8 | – | 61.2 | – | 42 | – | – | 55 | – | 31.8 | – | 57.5 | 50.8 µM | – |
| Cc1ccnc2[nH]c(-c3cccc(Cl)c3)cc(=O)c12 | > 47.8 | – | > 100 | – | > 100 | – | > 100 | – | > 43 | – | > 100 | – | – | > 100 | – | > 100 | – | – |
| CCCCCC(=O)N[C@@H](c1ccccc1)C(O)C(=O)OC1C[C@@]2(O)C(OC(=O)c3ccccc3)C3[C@](C)(C(=O)[C@H](O)C(=C1C)C2(C)C)C(OC1OCC(O)C(O)C1O)C[C@H]1OC[C@@]31OC(C)=O (stereo partly specified) | – | – | > 100 | – | > 100 | – | > 100 | – | 10.5 | – | 3.92 | 4.52 | – | > 100 | – | > 100 | > 100 µM | – |
| CCOc1ccc(/C=C(\Cl)c2ccc(OC)c(OC)c2)cc1 | – | – | > 100 | – | 74.8 | – | > 100 | – | > 100 | – | 74.1 | > 100 | – | > 100 | – | > 100 | > 100 µM | – |
| CC(=O)[C@@H]1CCC=C2CC[C@]3(C)[C@@H](CC[C@@H]4[C@@]5(C)CCCNC(C)(C)[C@@H]5CC[C@]43C)[C@H]21 | 3.22 | 2.02 | 3.73 | – | – | – | – | – | – | 1.93 | 3.5 | – | 1.44 | 2.84 | – | – | – | 1.81 |
| Cc1ccc(N=Nc2c(O)ccc3cc(S(=O)(=O)O)ccc23)c(C)c1 | > 100 | – | > 100 | – | > 100 | – | > 100 | – | > 100 | – | > 100 | > 100 | – | > 100 | – | > 100 | – | – |
